For 1 compound, IC50 results are on record in patent US6353007B1, “Substituted 1-(4-aminophenyl)indoles and their use as anti-inflammatory agents” (Boehringer Ingelheim Pharmaceuticals, Inc., priority 2000, dated 2002).

In this experiment the test system is IL-2 promoter/enhancer. The experiment in a line: IL-2 promoter assay (luciferase reporter, J.1F/C6 Jurkat cells, ionomycin and PMA induction). It counts as cell-based. The following applies: Homo sapiens; J.1F/C6 Jurkat cell line; induction with ionomycin and PMA; read-out: IC50, inhibition of luciferase activity. The text has this:
The IL-2 promoter assay measures transcriptional activation of a luciferase reporter gene which has been placed under control of the IL-2 promoter/enhancer. All the known regulatory features of the IL-2 gene are contained within a ˜300 bp sequence immediately upstream of the open reading frame. The region −328 to +35 relative to the transcription start site of the IL-2 gene is obtained by […] of human genomic DNA and is subcloned into the promoterless luciferase reporter vector pGL2-Basic (Promega). The resulting construct, pIL2P-luc, and a vector containing a neomycin resistance gene, pcDNA/Neo (Invitrogen), are linearized and stably transfected into Jurkat cells (a human T cell line) by electroporation.
For screening compounds, the cells are pelleted by centrifugation, washed once with PBS, resuspended in RPMI (phenol red-free) containing 5% FBS, and dispensed into 96-well, white microtiter plates (Packard) at 50,000 cells/well. The cells are pre-incubated with compounds (1 μg/ml) for 15 min prior to addition of ionomycin (1 μg/ml) and PMA (10 ng/ml) in a final volume of 100 μl. Following a 5 hr incubation at 37° C. in a humidified incubator, 100 μl of Luc-Lite lysis buffer/luciferase assay buffer (Promega) is added and luminescence measured using a Packard TopCount scintillation counter/luminometer.
Background: Reporter assays use an easily measured gene product as a stand-in for the process of interest.

pIC50: −log10 of the molar value.

As usually defined, the pIC50 is the negative decadic logarithm of the IC50, by convention in mol/L. For `C=CC[C@@H]1/C=C(\C)C[C@H](C)C[C@H](OC)[C@H]2O[C@@](O)(C(=O)C(=O)N3CCCC[C@H]3C(=O)O[C@H](/C(C)=C/[C@@H]3CC[C@@H](O)[C@H](OC)C3)[C@H](C)[C@@H](O)CC1=O)[C@H](C)C[C@@H]2OC` [FK506], the negative logarithm of the IC50 (pIC50) is 9.52.
